Measured values: US20110263593A1, “NOVEL IMIDAZO[1,2-a]PYRIMIDINE DERIVATIVES, METHOD FOR THE PREPARATION THEREOF, USE THEREOF AS MEDICAMENTS, PHARMACEUTICAL COMPOSITIONS AND NOVEL USE, IN PARTICULAR AS MET INHIBITORS” (sanofi-aventis, priority 2008, published 2011)

Columns and labels:
MET [1] = target: T1, MET (Homo sapiens, UniProt P08581); assay: Test B: inhibition of the autophosphorylation of MET, ELISA technique (pppY1230, 1234, 1235) in MKN45 cells; format: cell-based; parameters: endogenous in cells; host or cells: MKN45 cells; conditions: 1 h treatment, phosphoMET ELISA
Protocol: B) Test B: Inhibition of the Autophosphorylation of MET; ELISA Technique (pppY1230, 1234, 1235)
a) Cell lysates: Seed MKN45 cells into 96-well plates (Cell coat BD polylysine) at 20 000 cells/well in 200 μl in RPMI medium+10% FCS+1% L-glutamine. Leave to adhere for 24 hours in an incubator.
The cells are treated the day after seeding with the products at 6 concentrations in duplicate for 1 h. At least 3 control wells are treated with the same final amount of DMSO.
Product dilution: Stock at 10 mM in pure DMSO—range from 10 mM to 30 μM with an increment of 3 in pure DMSO—intermediate 1/50 dilutions in culture medium and then removal of 10 μl added directly to the cells (200 μl): final range from 10 000 to 30 nM.
At the end of the incubation, carefully remove the supernatant and rinse with 200 μl of PBS. Next, place 100 μl of lysis buffer directly in the wells on ice and incubate at 4° C. for 30 minutes. Lysis buffer: 10 mM Tris HCl, pH 7.4, 100 mM NaCl, 1 mM EDTA, 1 mM EGTA, 1% Triton X-100, 10% glycerol, 0.1% SDS, 0.5% deoxycholate, 20 mM NaF, 2 mM Na3VO4, 1 mM PMSF and cocktail of antiproteases.
The 100 μl of lysates are transferred into a V-bottomed polypropylene plate and the ELISA is performed immediately, or the plate is frozen at −80° C.
b) PhosphoMET ELISA BioSource Kit KH00281
Into each well of the kit plate, add 70 μl of kit dilution buffer+30 μl of cell lysate or 30 μl of lysis buffer for the blanks. Incubate for 2 h with gentle agitation at ambient temperature.
Rinse the wells 4 times with 400 μl of kit washing buffer. Incubate with 100 μl of anti-phospho MET antibody for 1 hour at ambient temperature.
Rinse the wells 4 times with 400 μl of kit washing buffer. Incubate with 100 μl of anti-rabbit HRP antibody for 30 minutes at ambient temperature (except for the wells of chromogen alone).
Rinse the wells 4 times with 400 μl of kit washing buffer. Introduce 100 μl of chromogen and incubate for 30 minutes in the dark at ambient temperature.
Stop the reaction with 100 μl of stop solution. Read without delay at […], 0.1 second on Wallac Victor plate reader.
Target sequence in this assay (P08581 25-1390): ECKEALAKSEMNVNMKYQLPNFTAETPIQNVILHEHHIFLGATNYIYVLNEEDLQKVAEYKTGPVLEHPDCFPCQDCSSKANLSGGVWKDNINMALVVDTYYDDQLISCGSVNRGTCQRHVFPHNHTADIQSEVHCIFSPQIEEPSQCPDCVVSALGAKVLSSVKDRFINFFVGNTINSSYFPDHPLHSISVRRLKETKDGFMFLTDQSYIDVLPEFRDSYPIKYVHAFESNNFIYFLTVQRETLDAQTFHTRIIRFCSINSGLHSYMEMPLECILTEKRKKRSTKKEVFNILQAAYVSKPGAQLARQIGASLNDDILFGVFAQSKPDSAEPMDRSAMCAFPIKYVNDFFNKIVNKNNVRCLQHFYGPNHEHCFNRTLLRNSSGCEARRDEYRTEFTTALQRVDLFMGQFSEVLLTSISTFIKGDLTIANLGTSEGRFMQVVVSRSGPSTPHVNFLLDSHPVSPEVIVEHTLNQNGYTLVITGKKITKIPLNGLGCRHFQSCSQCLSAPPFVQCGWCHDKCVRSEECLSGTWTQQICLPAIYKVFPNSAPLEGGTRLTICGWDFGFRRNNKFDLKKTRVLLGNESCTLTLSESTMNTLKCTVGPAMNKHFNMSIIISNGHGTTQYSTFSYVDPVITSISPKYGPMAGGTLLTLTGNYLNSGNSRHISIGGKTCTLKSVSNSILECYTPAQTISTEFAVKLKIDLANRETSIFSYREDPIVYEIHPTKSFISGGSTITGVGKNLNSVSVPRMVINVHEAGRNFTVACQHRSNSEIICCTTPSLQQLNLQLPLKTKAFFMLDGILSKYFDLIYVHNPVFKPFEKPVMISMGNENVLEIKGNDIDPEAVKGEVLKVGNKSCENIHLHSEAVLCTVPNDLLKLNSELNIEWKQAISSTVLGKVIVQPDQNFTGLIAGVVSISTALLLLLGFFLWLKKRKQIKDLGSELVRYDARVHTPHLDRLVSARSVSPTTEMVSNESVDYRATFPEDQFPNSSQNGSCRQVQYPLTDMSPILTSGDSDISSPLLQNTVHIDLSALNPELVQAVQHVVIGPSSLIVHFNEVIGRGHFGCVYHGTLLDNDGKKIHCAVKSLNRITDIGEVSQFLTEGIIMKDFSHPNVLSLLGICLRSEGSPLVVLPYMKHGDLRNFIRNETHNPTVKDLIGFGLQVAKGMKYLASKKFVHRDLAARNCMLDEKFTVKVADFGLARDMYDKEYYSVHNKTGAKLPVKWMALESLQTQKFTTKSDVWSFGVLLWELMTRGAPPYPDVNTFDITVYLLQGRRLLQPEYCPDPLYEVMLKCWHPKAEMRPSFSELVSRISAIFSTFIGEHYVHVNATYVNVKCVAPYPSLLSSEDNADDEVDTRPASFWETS

[2] = system: HCT116 cells and MKN45 cells; assay: Test C: measurement of cell proliferation by 14C-thymidine pulse; format: cell-based; conditions: 14C-thymidine incorporation, 96 h of treatment; cell line not stated (HCT116 and MKN45 in method)
Protocol: C) Test C: Measurement of cell proliferation by ^14C-thymidine pulse
The cells are seeded into Cytostar 96-well plates in 180 μl for 4 hours at 37° C. and 5% CO2: HCT116 cells at a rate of 2500 cells per well in DMEM medium+10% foetal calf serum+1% L-glutamine and MKN45 cells at a rate of 7500 cells per well in RPMI medium+10% foetal calf serum+1% L-glutamine. After these 4 hours of incubation, the products are added in 10 μl as a 20-fold concentrated solution according to the dilution method mentioned for the ELISA. The products are tested at 10 concentrations in duplicate from 10 000 nM to 0.3 nM with an increment of 3.
After treatment for 72 h, add 10 μl of ^14C-thymidine at 10 μCi/ml to obtain 0.1 μCi per well. The ^14C-thymidine incorporation is measured on a Micro-Beta machine (Perkin-Elmer) after 24 hours of pulse and 96 h of treatment.
All the stages of the assay are automated on BIOMEK 2000 or TECAN stations.

MET [3] = target: T1, MET; assay: Test A: HTRF MET assay in 96-well format; format: biochemical; parameters: The His-Tev-MET (956-1390) recombinant DNA in pFastBac (Invitrogen) is transfected into insect cells; His (N, cleaved yes); Tev cleavage site (N, cleaved yes); made in house; host or cells: SF21 insect cells (baculovirus, pFastBac); conditions: 5 nM MET, 10 μM ATP
Protocol: I) Expression and Purification of MET, Cytoplasmic Domain
The His-Tev-MET (956-1390) recombinant DNA in pFastBac (Invitrogen) is transfected into insect cells and, after several viral amplification stages, the final baculovirus stock is tested for the expression of the protein of interest.
After infection for 72 h at 27° C. with the recombinant virus, the SF21 cell cultures are harvested by centrifugation and the cell pellets are stored at −80° C.
The cell pellets are resuspended in lysis buffer (buffer A [50 mM HEPES, pH 7.5, 250 mM NaCl, 10% glycerol, 1 mM TECP]; + cocktail of protease inhibitors, Roche Diagnostics, without EDTA, ref. 1873580), stirred at 4° C. until the mixture is homogeneous and then lysed mechanically using a “Dounce” type apparatus.
After centrifugation, the lysis supernatant is incubated for 2 h at 4° C. with nickel chelate resin (His-Trap 6 Fast Flow™, GE HealthCare). After washing with 20 volumes of buffer A, the suspension is packed into a column, and the proteins are eluted with a gradient of buffer B (buffer A+290 mM imidazole).
The fractions comprising the protein of interest for the purpose of electrophoretic analysis (SDS PAGE) are combined, concentrated by ultrafiltration (10 kDa cut-off) and injected onto an exclusion chromatography column (Superdex™ 200, GE HealthCare) equilibrated in buffer A.
After enzymatic cleavage of the histidine tag, the protein is reinjected onto a new IMAC nickel chelate chromatography column (His-Trap 6 Fast Flow™, GE HealthCare) equilibrated in buffer A. The fractions eluted with a gradient of buffer B and comprising the protein of interest after electrophoresis (SDS PAGE) are finally combined and conserved at −80° C.
For the production of autophosphorylated protein, the previous fractions are incubated for 1 h at ambient temperature after the addition of 2 mM ATP, 2 mM MgCl2, and 4 mM Na3VO4. After the reaction has been stopped with 5 mM of EDTA, the reaction mixture is injected onto a HiPrep desalifying column (GE HealthCare) preequilibrated in buffer A+4 mM Na3VO4, and the fractions comprising the protein of interest (SDS PAGE analysis) are combined and stored at −80° C. The degree of phosphorylation is verified by mass spectrometry (LC-MS) and by peptide mapping.
A) Test A: HTRF MET Assay in 96-Well Format
MET at a final concentration of 5 nM is incubated in a final volume of 50 μl of enzymatic reaction in the presence of the test molecule (for a final concentration range of from 0.17 nM to 10 μM, 3% DMSO final concentration) in 10 mM MOPS buffer, pH 7.4, 1 mM DTT, 0.01% Tween 20. The reaction is initiated with the substrate solution to obtain final concentrations of 1 μg/ml poly-(GAT), 10 μM ATP and 5 mM MgCl2. After incubation for 10 min at ambient temperature, the reaction is stopped with a 30 μl mix so as to obtain a final solution of 50 mM Hepes, pH 7.5, 500 mM potassium fluoride, 0.1% BSA and 133 mM EDTA in the presence of 80 ng of streptavidin 61SAXLB Cis-Bio Int. and 18 ng of anti-phosphotyrosine Mab PT66-Europium Cryptate per well. After incubation for 2 hours at ambient temperature, the reading is taken at 2 wavelengths, 620 nm and 665 nm, on a reader for the TRACE/HTRF technique and the % inhibition is calculated from the 665/620 ratios.
Target sequence in this assay (P08581 956-1390): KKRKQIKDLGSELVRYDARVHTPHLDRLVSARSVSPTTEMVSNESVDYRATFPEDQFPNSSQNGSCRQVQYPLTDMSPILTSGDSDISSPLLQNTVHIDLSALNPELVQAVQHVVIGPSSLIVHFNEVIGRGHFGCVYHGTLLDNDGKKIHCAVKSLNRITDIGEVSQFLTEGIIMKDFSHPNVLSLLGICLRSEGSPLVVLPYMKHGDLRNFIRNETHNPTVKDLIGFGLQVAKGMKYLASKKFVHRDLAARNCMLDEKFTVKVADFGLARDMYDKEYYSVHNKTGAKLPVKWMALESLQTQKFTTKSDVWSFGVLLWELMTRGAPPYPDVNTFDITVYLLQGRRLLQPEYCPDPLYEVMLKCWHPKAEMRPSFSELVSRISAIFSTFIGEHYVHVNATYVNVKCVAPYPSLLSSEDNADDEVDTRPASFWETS

Row | Compound | melting point [°C] | IC50 (MET [1]) [nM] | IC50 [2] [nM] | IC50 (MET [3]) [nM]
1 | O=C(CN1CCN(C2CC2)CC1)Nc1nc2ccc(Sc3cnc4ncccn34)cc2s1 [Example 16, 2-(4-cyclopropylpiperazin-1-yl)-N-[6-(imidazo[1,2-a]pyrimidin-3-ylsulphanyl)-1,3-benzothiazol-2-yl]acetamide] | 224 | < 100 | < 1000 | < 100
2 | O=C(CCN1CCCC1)Nc1nc2ccc(Sc3cnc4ncccn34)cc2s1 [Example 8, N-[6-(imidazo[1,2-a]pyrimidin-3-ylsulphanyl)-1,3-benzothiazol-2-yl]-3-(pyrrolidin-1-yl)propanamide] | 247 | < 100 | < 1000 | < 100
3 | Nc1nc2cc(F)c(Sc3cnc4ncccn34)cc2s1 [Example 19, 5-fluoro-6-(imidazo[1,2-a]pyrimidin-3-ylsulphanyl)-1,3-benzothiazol-2-amine] | > 264 | < 100 | < 1000 | < 100
4 | O=C(NCCN1CCCC1)Nc1nc2ccc(Sc3cnc4ncccn34)cc2s1 [Example 5, 1-[6-(imidazo[1,2-a]pyrimidin-3-ylsulphanyl)-1,3-benzothiazol-2-yl]-3-[2-(pyrrolidin-1-yl)ethyl]urea] | > 260 | < 100 | < 1000 | < 100
5 | O=C(NCCN1CCOCC1)Nc1nc2ccc(Sc3cnc4ncccn34)cc2s1 [Example 4, 1-[6-(imidazo[1,2-a]pyrimidin-3-ylsulphanyl)-1,3-benzothiazol-2-yl]-3-[2-(morpholin-4-yl)ethyl]urea] | > 260 | < 100 | < 1000 | < 100
6 | O=C(Nc1nc2ccc(Sc3cnc4ncccn34)cc2s1)C1CCOCC1 [Example 27, N-[6-(imidazo[1,2-a]pyrimidin-3-ylsulphanyl)-1,3-benzothiazol-2-yl]tetrahydro-2H-pyran-4-carboxamide] | 270 | < 500 | < 1000 | < 100
7 | Nc1nc2ccc(Sc3cnc4ncccn34)cc2s1 [Example 1, 6-(imidazo[1,2-a]pyrimidin-3-ylsulphanyl)-1,3-benzothiazol-2-amine] | > 260 | < 500 | < 1000 | < 100
8 | CCN1CCN(CC(=O)Nc2nc3ccc(Sc4cnc5ncccn45)cc3s2)CC1 [Example 15, 2-(4-ethylpiperazin-1-yl)-N-[6-(imidazo[1,2-a]pyrimidin-3-ylsulphanyl)-1,3-benzothiazol-2-yl]acetamide] | 210 | < 100 | < 1000 | < 100
9 | O=C(Nc1nc2ccc(Sc3cnc4ncc(NCc5ccccc5)cn34)cc2s1)C1CC1 [Example 26, N-(6-{[6-(benzylamino)imidazo[1,2-a]pyrimidin-3-yl]sulphanyl}-1,3-benzothiazol-2-yl)cyclopropanecarboxamide] | > 260 | < 100 | < 1000 | < 100

Continued, values first:

Row | melting point [°C] | IC50 (MET [1]) [nM] | IC50 [2] [nM] | IC50 (MET [3]) [nM] | Compound
10 | 225 | < 100 | < 1000 | < 100 | COCCC(=O)Nc1nc2ccc(Sc3cnc4ncccn34)cc2s1 [Example 20, N-[6-(imidazo[1,2-a]pyrimidin-3-ylsulphanyl)-1,3-benzothiazol-2-yl]-3-methoxypropanamide]
11 | 180 | < 500 | < 1000 | < 100 | CCN(CC)CC(=O)Nc1nc2ccc(Sc3cnc4ncccn34)cc2s1 [Example 17, N2,N2-diethyl-N-[6-(imidazo[1,2-a]pyrimidin-3-ylsulphanyl)-1,3-benzothiazol-2-yl]glycinamide]
12 | 258 | < 100 | < 1000 | < 100 | O=C(Nc1nc2ccc(Sc3cnc4ncccn34)cc2s1)C1CC1 [Example 2, N-[6-(imidazo[1,2-a]pyrimidin-3-ylsulphanyl)-1,3-benzothiazol-2-yl]cyclopropanecarboxamide]
13 | > 260 | < 100 | < 1000 | < 100 | CC(=O)Nc1nc2ccc(Sc3cnc4ncccn34)cc2s1 [Example 3, N-[6-(imidazo[1,2-a]pyrimidin-3-ylsulphanyl)-1,3-benzothiazol-2-yl]acetamide]
